Results: US12370210B2, “Carbon monoxide as a treatment for neurodegenerative disease” (The General Hospital Corporation, priority 2019, dated 2025)

Test system: mouse MPTP toxin model
Assay: Mouse MPTP toxin model, striatal DA by HPLC and TH+ neuron counts after inhaled CO
Type: in vivo
Text: FIGS. 7A-C. Effect of single dose inhaled CO in the MPTP model. CO (225 ppm; 1 hr) or air (1 hr) administered 1 hr after MPTP or saline injection (normal control saline data not shown; no difference between groups in normal control animals). Animal sacrifice 5 days after MPTP. A. CO preserved striatal dopamine (DA) (P<0.03, t-test; 22 mice/grp). Striatal DA levels measured with HPLC, B. CO reduced loss of substantia nigra pars compacta (SNpc) tyrosine hydroxylase-positive (TH+) neurons. C. Stereological nigral TH+ neuron counts after CO treatment or air (P<0.05, t-test). Mean±std error.
We also employed a short-term regimen of the widely used^5253 MPTP toxin model in which DA loss ensues within 5-8 days of MPTP. We elected to initiate iCO treatment only after MPTP exposure in order to model protective treatment of human PD, which begins only after disease onset. We exposed mice to MPTP (40 mg/kg, i.p.)^54,55 or saline (study control) and then treated with a single dose of either iCO (225 ppm) or air (negative control) for 1 hr, for 4 total groups: 1) MPTP/CO (225 ppm; 1 hr), 2) MPTP/air (1 hr), 3) saline/CO (225 ppm; 1 hr), 4) saline/air (1 hr). Five days after MPTP exposure, we measured DA levels in the striata via HPLC and counted TH+ neurons in all groups. MPTP mice treated with CO had ˜46% higher DA levels than those treated with air (2-tailed t-test, p=0.028; FIG. 7A). […] Critically, for TH+ neurons, MPTP mice treated with iCO had ˜22% more TH+ neurons than those treated with air (p<0.05; FIGS. 7B-C).

Compound: [C-]#[O+] [CO, carbon monoxide]
- striatal DA levels higher than air-treated MPTP mice (MPTP 40 mg/kg i.p., CO 225 ppm 1 hr, single dose 1 hr after MPTP, 5 days after MPTP, p=0.028): ~46%
- more TH+ neurons than air-treated MPTP mice (MPTP 40 mg/kg i.p., iCO 225 ppm 1 hr, 5 days after MPTP, p<0.05): ~22%
- striatal DA levels in saline-treated mice (saline instead of MPTP, iCO 225 ppm 1 hr, n=22 per group, p>0.05 vs air): 97.0 ± 2.4 pmol/mg
- TH+ cell counts in saline-treated mice (saline instead of MPTP, iCO 225 ppm 1 hr, p>0.05 vs air): 7,437±545
